From PubChem BioAssay (NCI)
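Briefly, cells in 96-well plates were exposed to five compound concentrations for 48 h, and endpoints were estimated by linear interpolation. The concentration for 50% growth inhibition is given as GI50. TGI marks complete inhibition of growth.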

Assays:
Experiment in all cases: NCI-60 cell line screen, 48 h
LOX IMVI melanoma = tested on: LOX IMVI melanoma
HL-60(TB) leukemia = tested on: HL-60(TB) leukemia
MALME-3M melanoma = tested on: MALME-3M melanoma
EKVX NSCLC = tested on: EKVX NSCLC
RPMI-8226 leukemia = tested on: RPMI-8226 leukemia
HOP-92 NSCLC = tested on: HOP-92 NSCLC
TK-10 renal = tested on: TK-10 renal
NCI-H522 lung = tested on: NCI-H522 lung
OVCAR-3 ovarian = tested on: OVCAR-3 ovarian
M14 melanoma = tested on: M14 melanoma

Fc1ccc(CNc2c3ccccc3nc3ccccc23)cc1
GI50 (LOX IMVI melanoma): 1.55 µM
TGI (LOX IMVI melanoma): 3.07 µM
GI50 (HL-60(TB) leukemia): 2.9 µM
TGI (HL-60(TB) leukemia): 8.97 µM
GI50 (MALME-3M melanoma): 2.18 µM
TGI (MALME-3M melanoma): 5.48 µM
GI50 (EKVX NSCLC): 2.61 µM
TGI (EKVX NSCLC): 11.4 µM
GI50 (RPMI-8226 leukemia): 2.03 µM
TGI (RPMI-8226 leukemia): 5.79 µM
GI50 (HOP-92 NSCLC): 2.25 µM
TGI (HOP-92 NSCLC): 11.5 µM
GI50 (TK-10 renal): 2.83 µM
TGI (TK-10 renal): 10.6 µM
GI50 (NCI-H522 lung): 1.66 µM
TGI (NCI-H522 lung): 4.24 µM
GI50 (OVCAR-3 ovarian): 2.37 µM
TGI (OVCAR-3 ovarian): 5.43 µM
GI50 (M14 melanoma): 2.97 µM
TGI (M14 melanoma): 12.4 µM

CC1(C)CC(=O)C(C(c2cccc(O)c2O)C2C(=O)CC(C)(C)CC2=O)C(=O)C1
TGI (LOX IMVI melanoma): > 100 µM
TGI (HL-60(TB) leukemia): > 100 µM
TGI (MALME-3M melanoma): > 100 µM
TGI (EKVX NSCLC): > 100 µM
TGI (RPMI-8226 leukemia): > 100 µM
TGI (HOP-92 NSCLC): > 100 µM
TGI (TK-10 renal): > 100 µM
TGI (NCI-H522 lung): > 100 µM
TGI (OVCAR-3 ovarian): > 100 µM
TGI (M14 melanoma): > 100 µM

COc1ccc(CN2C(=O)C(Cc3cc(OC)c(OC)c(C)c3OC)N(C(=O)OC(C)C)C(=O)/C2=C/c2cc(OC)c(OC)c(C)c2OC)cc1 (stereo not given)
TGI (LOX IMVI melanoma): > 100 µM
TGI (HL-60(TB) leukemia): > 100 µM
TGI (MALME-3M melanoma): > 100 µM
TGI (EKVX NSCLC): > 100 µM
TGI (RPMI-8226 leukemia): > 100 µM
TGI (HOP-92 NSCLC): > 100 µM
TGI (TK-10 renal): > 100 µM
TGI (NCI-H522 lung): > 100 µM
TGI (OVCAR-3 ovarian): > 100 µM
TGI (M14 melanoma): > 100 µM

O=C(O)CNC(=O)c1ccccc1O
TGI (LOX IMVI melanoma): > 100 µM
TGI (HL-60(TB) leukemia): > 100 µM
TGI (MALME-3M melanoma): > 100 µM
TGI (EKVX NSCLC): > 100 µM
TGI (RPMI-8226 leukemia): > 100 µM
TGI (HOP-92 NSCLC): > 100 µM
TGI (TK-10 renal): > 100 µM
TGI (NCI-H522 lung): > 100 µM
TGI (OVCAR-3 ovarian): > 100 µM
TGI (M14 melanoma): > 100 µM

C#CC[C@@H]1C[C@]2(C)[C@H]3CC[C@@H]4[C@H]5[C@H](C(=C)C)CC[C@]5(C(=O)O)CC[C@@]4(C)[C@]3(C)CC[C@H]2C(C)(C)[C@H]1O
GI50 (LOX IMVI melanoma): 2.63 µM
TGI (LOX IMVI melanoma): 8.67 µM
GI50 (HL-60(TB) leukemia): 2.57 µM
TGI (HL-60(TB) leukemia): > 100 µM
GI50 (MALME-3M melanoma): 2.53 µM
TGI (MALME-3M melanoma): 5.83 µM
GI50 (EKVX NSCLC): 2.63 µM
TGI (EKVX NSCLC): 10.6 µM
GI50 (RPMI-8226 leukemia): 1.68 µM
TGI (RPMI-8226 leukemia): 14.7 µM
GI50 (HOP-92 NSCLC): 1.7 µM
TGI (HOP-92 NSCLC): 4.18 µM
GI50 (TK-10 renal): 1.85 µM
TGI (TK-10 renal): 4.44 µM
GI50 (NCI-H522 lung): 2.95 µM
TGI (NCI-H522 lung): 12.3 µM
GI50 (OVCAR-3 ovarian): 1.7 µM
TGI (OVCAR-3 ovarian): 3.15 µM
GI50 (M14 melanoma): 2.05 µM
TGI (M14 melanoma): 4.68 µM

COc1ccc2c(CC(=O)O)cc(=O)oc2c1
TGI (LOX IMVI melanoma): > 100 µM
TGI (HL-60(TB) leukemia): > 100 µM
TGI (MALME-3M melanoma): > 100 µM
TGI (EKVX NSCLC): > 100 µM
TGI (RPMI-8226 leukemia): > 100 µM
TGI (HOP-92 NSCLC): > 100 µM
TGI (TK-10 renal): > 100 µM
TGI (NCI-H522 lung): > 100 µM
TGI (OVCAR-3 ovarian): > 100 µM
TGI (M14 melanoma): > 100 µM

CCOc1cc(C=O)c2c(ccc3ccc(OC)c(OC)c32)c1OC
TGI (LOX IMVI melanoma): > 100 µM
TGI (HL-60(TB) leukemia): > 100 µM
TGI (MALME-3M melanoma): > 100 µM
TGI (EKVX NSCLC): > 100 µM
TGI (RPMI-8226 leukemia): > 100 µM
TGI (HOP-92 NSCLC): > 100 µM
TGI (TK-10 renal): > 100 µM
TGI (NCI-H522 lung): > 100 µM
TGI (OVCAR-3 ovarian): > 100 µM
TGI (M14 melanoma): > 100 µM
